Measurements taken from US20240398738A1, “MANIPULATION OF THE RETINOIC ACID SIGNALING PATHWAY” (THE REGENTS OF THE UNIVERSITY OF CALIFORNIA, priority 2017, published 2024).
Entries after “also recorded” stand apart in the source; their conditions may differ.

Experiments:
[1] = tested on: retinoic acid receptor β (RARβ); test: Immunolabeling of RARβ in retinal cross-sections after intravitreal injection; assay type: in vivo, mouse; settings: 5-6 days after intravitreal ATRA 100 nM versus vehicle
Description: The same procedure was carried out for detection of RARβ in mouse retinas following injection of vehicle or ATRA. Slides were incubated with a primary rabbit anti-RARβ antibody (ab53161, Abcam) and detected using an Alexa Fluor-488 conjugated goat anti-rabbit secondary antibody (Life Technologies). […] Retinas were collected 5-6 days following injection with vehicle, ATRA, or ATRA and Liarozole.
Imaging and Analysis. […] RARE double reporter virus in rats, RARb immunolabeling and TUNEL assay were imaged using a Laser Scanning Confocal Microscope (LSM 780 NLO, Zeiss), using Zen software and default configuration for RFP, GFP, AF488 and nuclear-ID detection.

[2] = tested on: RGCs in rd10 retina; test: MEA recording of light-flash responses in partially degenerated rd10 retina; assay type: in vivo, mouse
Description: Intravitreal Injections. Before injection, mice were anesthetized with isoflurane (2%) and their pupils were dilated with tropicamide (1%) and phenylephrine (2.5%). Proparacaine (0.5%) was used as a topical analgesic. Genteal was applied under a glass coverslip to keep the cornea lubricated. An incision was made through the sclera below the ora serrata with a 30G needle and ˜1 μl of solution was injected into the vitreous with a blunt-ended 33G Hamilton syringe. After injection, the antibiotic tobramycin (0.3%) was applied to the eye. Final drug concentrations after intravitreal injection were: all-trans retinoic acid (ATRA, 100 nM), liarozole (100 μM), diethylaminobenzaldehyde (DEAB, 20 μM), citral (50 μM), BMS-493 (500 nM), and retinaldehyde (1 μM). The above values correspond to the final concentration in the eye after injecting 1 μl of drug accounting for a 5-fold dilution. An injection of PBS including 1% DMSO was used as vehicle control.
Multi Electrode Array Recordings. For extracellular recordings, a flat-mounted retina was placed ganglion cell layer down onto a 60-electrode Multi-Electrode Array (MEA 1060-2-BC, Multi-Channel Systems). After mounting the retina, photoswitches were applied for 30 min, followed by a 15 min wash. BENAQ was applied at a concentration of 100 μM and QAQ at 300 μM. A solution containing a mixture of neurotransmitter receptor blockers isolated RGCs from synaptic inputs: (in μM) 10 AP4, 40 DNQX, 30 AP5, 10 SR-95531, 50 TPMPA, 10 strychnine, and 50 tubocurarine. Extracellular spikes were high-pass filtered at 200 Hz and digitized at 20 kHz and were counted when exceeding 4 SD from the mean background voltage signal. Typically, each electrode recorded spikes from one to three individual RGCs. Principal component analysis of the spike waveforms was used for sorting spikes generated by individual cells (Offline Sorter, Plexon). Stimulation light was generated from a mercury arc lamp. Unfiltered broad spectrum light was used for BENAQ-treated retinas. Narrow band optical filters (Chroma) were used to deliver alternating intervals of 380 nm and 500 nm for stimulation of QAQ-treated as described previously (5,12). The Photoswitch Index (5) (PI) was established for individual retinas in light/darkness for treatment with BENAQ or in 380 nm/500 nm light for treatment with QAQ (11,12).
Data Analysis and Statistics. Unless otherwise stated, all statistical significance (p-value) calculations were performed using the two-tailed unpaired Student's t test. Results with p<0.05 were considered significant. P-values are: *<0.05, **<0.01, ***<0.001. Pairwise comparisons for non-parametric data employed the Wilcoxon Rank Sum Test or the Mann-Whitney U-test. In the case where ANOVA was employed, bootstrapping was used to account for unequal group sizes and a Tukey HSD test was employed as a post-hoc test to define which comparisons and interactions produced statistically significant changes. A modified Thompson-Tau method was employed for the detection of outliers. Non-normal data distributions were analyzed using the Kruskal-Wallis ANOVA with a Dunn's post hoc test. Sigmoidal curves were fit using OriginPro™ and the output curves for vehicle and BMS-493 are y=START+(END−START)*x^n/(k^n+x^n).
Injections. Intravitreal injections: Adult mice and rats were intravitreally injected with drugs or viruses. Before injection, animals were anesthetized with isoflurane (2%) and their pupils were dilated with tropicamide (1%) and phenylephrine (2.5%). Proparacaine (0.5%) was used as a topical analgesic. Genteal was applied under a glass coverslip to keep the cornea lubricated. An incision was made through the sclera below the ora serrata with a 30G needle. Solutions were injected into the vitreous with a blunt-ended 33G Hamilton syringe. After injection, the antibiotic tobramycin (0.3%) was applied to the eye. […]

| Structure (SMILES) | RARβ level in RGCs / ganglion cell layer [1] | I50, midpoint of the intensity vs. response curve ([2]; 6-week-old rd10, 3-7 days after intravitreal injection, vehicle eye 1.73 μW) | Max, peak response (ratio of firing rate in the light:dark) ([2]; 6-week-old rd10, 3-7 days after intravitreal injection, vehicle eye 3.68) | RGC response to a flash of dim light, in words ([2]; rd10, 50 ms flash, 0.2 μW, vehicle-treated retinas showed no response) | background (spontaneous) firing in darkness, in words ([2]; rd10, BMS-493-injected eye) | response threshold (light intensity) ([2]; rd10, BMS-493-injected eye, vehicle-injected 0.85 μW) | light response compared between drug-injected and vehicle-injected eye of each animal, in words ([2]; rd10, n=5, paired) | shift of the intensity-response curve, in words ([2]; rd10, range of light intensities, versus vehicle) |
| --- | --- | --- | --- | --- | --- | --- | --- | --- |
| CC1=C(/C=C/C(C)=C/C=C/C(C)=C/C(=O)O)C(C)(C)CCC1 [ATRA, all-trans retinoic acid] | significant increase in RARβ; also recorded: upregulation of the β-subunit of RAR |  |  |  |  |  |  |  |
| CC1(C)CC=C(C#Cc2ccccc2)c2cc(/C=C/c3ccc(C(=O)O)cc3)ccc21 [BMS-493] |  | 0.35 μW | 4.77 | shows a response in BMS-493 injected animals but not vehicle injected mice; also recorded: transient increase in RGC firing in response to a brief flash (50 ms) of dim light | reduced spontaneous activity; also recorded: decrease in the background firing rate in darkness | 0.2 μW | significantly increased light response in every subject; also recorded: observed in all 5 animals tested; also recorded: enhanced the light response in all mice tested | leftward and upward shift of fitted sigmoidal curves; also recorded: increase in sensitivity and peak response to light |
